# Experimental data: patent publication US7887851B2, “Aromatase activator” (Kao Corporation, priority 2004, dated 2011)
# Key:
# [1] = system: transcription control region for exon 1b of human aromatase gene; assay: Luciferase reporter assay, Ex1b-luc in HepG2 cell (expression of exon 1b of aromatase gene); assay type: cell-based; details: added at 1%, 20 hours
# Procedure: The region containing transcription control region for exon 1b of human aromatase gene and a part of the exon 1b was amplified by PCR from genomic DNA extracted from human normal keratinocyte by using the following primers: […]
# The resulting PCR product was treated with restriction enzymes SpeI and EcoRI, and incorporated in SpeI site and EcoRI site in SeaPansy null Control Vector (Toyo Ink Mfg. Co., Ltd.) to produce Ex1b-luc plasmid. This plasmid was used in the luciferase assay as will be described below.
# Immortalized human hepatoma-derived cell (HepG2 cell) […]
# The transfected cells were cultivated overnight, and plant extract prepared in Production Example 1, Table 2, or yeast extract (“YeastLiquid B”, Ichimaru Pharcos Co Ltd.), silk protein extract (“Silkgen G Soluble KE”, Ichimaru Pharcos Co Ltd.), milk protein (“Bioderma SX-14” Ichimaru Pharcos Co Ltd.), “lactoferrin S FREE”, Ichimaru Pharcos Co Ltd.), natto extract (“Soybean polymer F B-20”, Ichimaru Pharcos Co Ltd.), or royal jelly (“royal jelly extract”, Ichimaru Pharcos Co Ltd.) was added (1% or 0.1%), and the cultivation was continued for another 20 hours. After adding 20 μL of alamarBlue (BIOSOURCE), fluorescence intensity (excitation light 544 nm, fluorescence 590 nm) was measured. Luciferase activity was also measured by using PicaGene Dual SeaPansy Luminescence kit (Nippon Gene). […]
# [2] = system: HepG2 cell; assay: alamarBlue fluorescence in Ex1b-luc transfected HepG2 cell; assay type: cell-based, human; details: added at 1%, 20 hours
# Procedure: Immortalized human hepatoma-derived cell (HepG2 cell)
# HepG2 cell was inoculated to 96 well culture plate at 30,000 cells per well, and Ex1b-luc was introduced using lipofectamine reagent (Invitrogen) according to the protocol described in the attached manual. The DNA was used at an amount of 0.1 μg per well. The same procedure was repeated for control without adding the DNA (2 wells).
# The transfected cells were cultivated overnight, and plant extract prepared in Production Example 1, Table 2, or yeast extract (“YeastLiquid B”, Ichimaru Pharcos Co Ltd.), silk protein extract (“Silkgen G Soluble KE”, Ichimaru Pharcos Co Ltd.), milk protein (“Bioderma SX-14” Ichimaru Pharcos Co Ltd.), “lactoferrin S FREE”, Ichimaru Pharcos Co Ltd.), natto extract (“Soybean polymer F B-20”, Ichimaru Pharcos Co Ltd.), or royal jelly (“royal jelly extract”, Ichimaru Pharcos Co Ltd.) was added (1% or 0.1%), and the cultivation was continued for another 20 hours. After adding 20 μL of alamarBlue (BIOSOURCE), fluorescence intensity (excitation light 544 nm, fluorescence 590 nm) was measured. Luciferase activity was also measured by using PicaGene Dual SeaPansy Luminescence kit (Nippon Gene). The cells were lysed by adding 25 μL per well of the lysis buffer that had been diluted 5× lysis buffer to 1× concentration.
structure (smiles),measurement,setting,value
"OC[C@H]1O[C@H](O[C@H]2O[C@H](CO)[C@@H](O)[C@H](O)[C@H]2O)[C@H](O)[C@@H](O)[C@@H]1O [Trehalose, trehalose]",Luciferase activity,[1],141.0%
same,AlamarBlue activity,[2],113.9%
